Experimental data taken from EP0606506A1, “Beta-lactamase resistant antibacterial composition” (Kim, Yeong Sul, priority 1993, dated 1994).
Like-named read-outs stand apart in the source and are kept apart here.

What was measured:
Assay in all cases: Agar dilution MIC, in vitro antibacterial activity test
Format in all cases: cell-based
Escherichia coli 1507 E = conditions: 18 h
Method: (§1) The antibacterial activity of each of sulbactam and the compounds I, II, III and IV was measured according to the agar dilution method using Mueller Hinton agar. The compounds to be tested were diluted twice in stages and then introduced into the agar plate. On this agar plate the selected bacterial strains were inoculated and then incubated at 37 °C for 18 hours. The agar plate was then visually observed to determine the minimum concentration, at which the growth of bacterial strains was not observed, which is then designated as the MIC value of the relevant antibiotic compound.
(§2) In the same manner, the MIC value of the compound I, II, III or IV in the presence of sulbactam was measured. In this case, the concentration of sulbactam in each agar plate should be constantly maintained at about 13µg/ml, which corresponds to approximately a quarter of the MIC value of sulbactam, to ensure that the decrease in MIC value of the compounds I - IV in the presence of sulbactam is not affected by the antibacterial activity of sulbactam itself. […] As a result of this experiment, the MIC values of each of four kinds of antibiotics, i.e. the compound I, II, III or IV used alone and in the presence of sulbactam were compared to each other and then the synergistic effect of the composition of the present invention was estimated.

Escherichia coli DC 0 = conditions: DC0, 18 h
Method: as §1, §2

Escherichia coli DC 2 = conditions: DC2, 18 h
Method: as §1, §2

Escherichia coli O 55 = conditions: O55, 18 h
Method: as §1, §2

Escherichia coli TEM = conditions: 18 h
Method: as §1, §2

[1] = system: Pseudomonas aeruginosa 1771 M; conditions: 18 h
Method: as §1, §2

[2] = system: Staphylococcus aureus 285; conditions: Staphylococcus aureus, 285, 18 h
Method: as §1, §2

[3] = system: Staphylococcus aureus 503; conditions: Staphylococcus aureus, 503, 18 h
Method: as §1, §2

[4] = read-out: MIC value, alone, Mueller Hinton agar, 37°C
[5] = alone, Mueller Hinton agar, 37°C, read-out: MIC value
[6] = in the presence of sulbactam(13μg/ml), Mueller Hinton agar, 37°C, read-out: MIC value
[7] = read-out: MIC value, in the presence of sulbactam(13μg/ml), Mueller Hinton agar, 37°C

Row | SMILES | MIC (Escherichia coli 1507 E; [4]) | MIC (Escherichia coli DC 0; [4]) | MIC (Escherichia coli DC 2; [4]) | MIC (Escherichia coli O 55; [4]) | MIC (Escherichia coli TEM; [4]) | MIC [1, 4] | MIC [2, 4] | MIC [3, 4] | MIC (Escherichia coli 1507 E; [5]) | MIC (Escherichia coli 1507 E; [6]) | MIC (Escherichia coli DC 0; [6]) | MIC (Escherichia coli O 55; [5]) | MIC (Escherichia coli O 55; [6]) | MIC (Escherichia coli TEM; [7]) | MIC [1, 5] | MIC [1, 6] | MIC [2, 5] | MIC [2, 6] | MIC [3, 5] | MIC [3, 6] | other results
1 | CC1(C)[C@H](C(=O)O)N2C(=O)C[C@H]2S1(=O)=O [sulbactam] | > 100 µg/mL | > 100 µg/mL | 100 µg/mL | 100 µg/mL | > 100 µg/mL | 50 µg/mL | 100 µg/mL | 100 µg/mL |  |  |  |  |  |  |  |  |  |  |  |  | 
2 | CC1(C)S[C@@H]2C(NC(=O)[C@H](N)c3ccc(O)cc3)C(=O)N2[C@H]1C(=O)O (stereo partly drawn) [compound I, 6-[D(-)-α-amino-p-hydroxyphenylacetamido]penicillanic acid] |  |  | 1.56 µg/mL |  | > 100 µg/mL |  |  |  | 3.12 µg/mL | 0.391 µg/mL | 0.781 µg/mL | 1.56 µg/mL | < 0.002 µg/mL | > 100 µg/mL | 0.098 µg/mL | 0.098 µg/mL | 1.56 µg/mL | 0.195 µg/mL | 1.56 µg/mL | 0.098 µg/mL | MIC (Escherichia coli DC 0; [5]): 6.25 µg/mL; MIC (Escherichia coli DC 2; [7]): 0.781 µg/mL
3 | C=N[C@@H](C(=O)NC1C(=O)N2[C@@H]1SC(C)(C)[C@@H]2C(=O)O)c1ccc(O)cc1 (stereo partly drawn) [compound II, 6-[D-2-(methyleneamino)-2-(4-hydroxyphenyl)acetamido]penicillanic acid] |  |  |  |  | > 100 µg/mL |  |  |  | 6.25 µg/mL | 0.098 µg/mL | 3.12 µg/mL | 1.56 µg/mL | < 0.002 µg/mL | > 100 µg/mL | 0.195 µg/mL | 0.049 µg/mL | 1.56 µg/mL | 0.195 µg/mL | 1.56 µg/mL | 0.098 µg/mL | MIC (Escherichia coli DC 0; [5]): 6.25 µg/mL; MIC (Escherichia coli DC 2; [5]): 1.56 µg/mL; MIC (Escherichia coli DC 2; [6]): 0.781 µg/mL
4 | CCN1CCN(C(=O)N[C@@H](C(=O)NC2C(=O)N3[C@@H]2SC(C)(C)[C@@H]3C(=O)O)c2ccc(O)cc2)C(=O)C1=O (stereo partly drawn) [compound III, 6-[D-2-(4-ethyl-2,3-dioxopiperazinocarbonylamino)-2-(4-hydroxyphenyl)acetamido]penicillanic acid] |  | 1.56 µg/mL |  |  | > 100 µg/mL |  |  |  | 0.781 µg/mL | 0.098 µg/mL | 0.195 µg/mL | 0.195 µg/mL | < 0.002 µg/mL | 1.56 µg/mL | 0.098 µg/mL | 0.025 µg/mL | 3.12 µg/mL | 0.781 µg/mL | 6.25 µg/mL | 0.391 µg/mL | MIC (Escherichia coli DC 2; [5]): 0.098 µg/mL; MIC (Escherichia coli DC 2; [6]): 0.025 µg/mL
5 | CNC(=O)C[C@@H](N)C(=O)N[C@@H](C(=O)N[C@@H]1C(=O)N2[C@@H]1SC(C)(C)[C@@H]2C(=O)O)c1ccc(O)cc1 [compound IV, 6-[D-2-(D-2-amino-3-N-methylcarbamoyl-propionamido)-2-p-hydroxyphenylacetamido]penicillanic acid] | 3.12 µg/mL | 3.12 µg/mL | 0.781 µg/mL | 0.781 µg/mL | > 100 µg/mL | 0.391 µg/mL | 6.25 µg/mL | 6.25 µg/mL |  |  |  |  |  | 25 µg/mL |  |  |  |  |  |  | MIC (Escherichia coli 1507 E; [7]): 0.098 µg/mL; MIC (Escherichia coli DC 0; [7]): 0.781 µg/mL; MIC (Escherichia coli DC 2; [7]): 0.195 µg/mL; MIC (Escherichia coli O 55; [7]): < 0.002 µg/mL; MIC [1, 7]: 0.025 µg/mL; MIC [2, 7]: 1.56 µg/mL; MIC [3, 7]: 1.56 µg/mL
